# What was measured:
# [1] = In vitro release/permeation assay through porcine skin, Franz diffusion cells; type: in vitro ADME; conditions: infinite dose 300 µL of 1% solution; for Papp at 4 h, 1 %: pig, read-out: Permeability Coef. Kp (converted)
# Procedure: (§1) The in vitro release test was conducted with artificial membrane (Whatman® Nuclepore™) and porcine sublingual mucosa as well as pig skin membrane as a reference. Biological membranes (mucosa and skin) were dermatomed at 500 ± 50 µm of thickness. Membranes were placed in vertical Franz diffusion cells and conditioned in a thermostatic bath at 43 °C to assure a membrane surface temperature of 32 ± 1 °C as in the previous TMWL study. The receptor solution used was the same PBS:EtOH (1:1) as before. Data on the TWML, temperature, and humidity of the membrane were obtained before initiating the test with the Tewameter TM300 (Courage-Khazaka, Cologne, Germany).
# (§2) On the modified mucosas, a volume of 70 µL of each formulation was applied and after one hour an infinite dose (300 µL) of tested solution was applied. […] Receptor fluid was collected at different times (30 min, 1 h, 2 h, 4 h) and the same volume was immediately replaced with fresh fluid. The aliquots were appropriately diluted and filtered (0.45 µm, Cameo, Sigma-Aldrich, St. Louis, MO, USA) before their analysis with HPLC/DAD.
# (§3) The release of the active substances was determined with the cumulative amount released (Qn, μg/cm^2), which represents the cumulative amount of the active substances quantified in the receptor fluid per area of the sample [34]. The equation is as follows (1):(1) Qn=Cn×Vc+∑i=1n−1(Ci×Vs)/A, where Qn is the cumulative amount of active substance released at time n (μg/cm^2); Cn is the concentration of active substance in the collected sample (μg/mL); Vc is the volume of the Franz diffusion cell (3 mL); ∑i=1n−1 Ci is the sum of the active substance concentrations (µg/mL) determined in sampling intervals 1 to n − 1; Vs is the volume of the collected sample; and A is the surface area of the applied membrane (1.86 cm^2).
# (§4) The best absorption model to describe the release of active substances was obtained from the graphic representation of data release (values/time), as described by Mallandrich et al.. All data collected were processed over time to obtain the best fit equation for each membrane using the nonlinear regression software STATGRAPHICS® plus 5 (Statgraphics Technologies, Inc., The Plains, VA, USA). Selection of the best equation was made in accordance with the highest correlation coefficient corrected for the number of degrees of freedom (R^2). Following that analysis, the parameters of the flow (J, […]), the permeability coefficient (Kp, cm/h), the delay time (Tl, h), the maximum concentration (Cmax, µg/mL), the maximum time (tmax, h), and the area under the curve (AUC) were calculated for each membrane.
# (§5) The software was OpenLab (version 2.2.0). […] Methanol (Merck, Darmstadt, Germany) was used as an extraction solvent for all active substances. All analytical procedures were validated following the guidelines developed by the International Conference on Harmonization (ICH). The calibration curve, limit of quantification (LoQ), and limit of detection (LoD) were obtained and are detailed in Table 5.
# [2] = In vitro release/permeation assay through porcine sublingual mucosa, unmodified or modified with formulations, Franz diffusion cells; type: in vitro ADME; conditions: for permeability (in words): across skin, mucosa and modified mucosa; for decrease in the permeability coefficient promoted by F16: mucosa modified with F16 vs unmodified mucosa; for Papp at 4 h, 1 %: pig, read-out: Permeability Coef. Kp (converted); for area under the curve, flux and permeability through unmodified mucosa compared to skin: unmodified mucosa vs porcine skin
# Procedure: as §1, §2, §3, §4, §5
# [3] = cited from earlier work
# [4] = cited from earlier work; remark: listed apart in the source
Compound,Flux. J [1],Lag Time. TL [1],"Papp at 4 h, 1 % [1]",Flux. J ([2]; MUCOSA F3),Lag Time. TL ([2]; MUCOSA F3),Flux. J ([2]; MUCOSA F6),Lag Time. TL ([2]; MUCOSA F6),Flux. J ([2]; MUCOSA F16),Lag Time. TL ([2]; MUCOSA F16),Flux. J ([2]; MUCOSA unmodified),Lag Time. TL ([2]; MUCOSA unmodified),permeability (in words) [2],decrease in the permeability coefficient promoted by F16 [2],"Papp at 4 h, 1 % ([2]; MUCOSA F3)","Papp at 4 h, 1 % ([2]; MUCOSA F6)","Papp at 4 h, 1 % ([2]; MUCOSA F16)","Papp at 4 h, 1 % ([2]; MUCOSA unmodified)","area under the curve, flux and permeability through unmodified mucosa compared to skin [2]",pKa [3],LogP (pH7.4) [4]
"Cn1c(=O)c2c(ncn2C)n(C)c1=O [CAF, Caffeine]",75.09 ± 51.32 µg/cm^2/h,0.65 ± 0.24 h,1.68 ×10⁻⁶ cm/s,102.73 ± 30.73 µg/cm^2/h,0.10 ± 0.08 h,611.08 ± 85.12 µg/cm^2/h,0.28 ± 0.08 h,78.93 ± 11.05 µg/cm^2/h,-0.18 ± 0.03 h,428.40 ± 81.41 µg/cm^2/h,0.04 ± 0.34 h,high permeability,approximately 80%,2.3 ×10⁻⁶ cm/s,13.7 ×10⁻⁶ cm/s,1.77 ×10⁻⁶ cm/s,9.6 ×10⁻⁶ cm/s,approximately four times higher,–,–
"C[C@@H]1C[C@H]2[C@@H]3CCC4=CC(=O)C=C[C@]4(C)[C@@]3(F)[C@@H](O)C[C@]2(C)[C@@]1(O)C(=O)CO [DEX, Dexamethasone]",5.84 ± 3.46 µg/cm^2/h,0.62 ± 0.16 h,–,330.43 ± 11.68 µg/cm^2/h,0.36 ± 0.04 h,289.38 ± 99.51 µg/cm^2/h,0.64 ± 0.36 h,68.26 ± 1.67 µg/cm^2/h,-0.11 ± 0.27 h,335.25 ± 61.25 µg/cm^2/h,0.31 ± 0.13 h,–,approximately 80%,–,–,–,–,–,12.1,–
"CC(C)Cc1ccc(C(C)C(=O)O)cc1 (stereo not shown) [IBU, Ibuprofen]",24.79 ± 2.75 µg/cm^2/h,-0.24 ± 0.19 h,0.569 ×10⁻⁶ cm/s,498.25 ± 49.45 µg/cm^2/h,0.23 ± 0.01 h,451.01 ± 98.04 µg/cm^2/h,0.35 ± 0.06 h,74.41 ± 0.16 µg/cm^2/h,0.15 ± 0.003 h,346.91± 5.87 µg/cm^2/h,0.17 ± 0.07 h,intermediate permeability,approximately 80%,11.4 ×10⁻⁶ cm/s,10.4 ×10⁻⁶ cm/s,1.71 ×10⁻⁶ cm/s,7.96 ×10⁻⁶ cm/s,14 times higher,–,–
Ivermectin,3.13 ± 0.86 µg/cm^2/h,0.59 ± 0.28 h,–,87.23 ± 21.83 µg/cm^2/h,0.28 ± 0.02 h,144.86 ± 29.93 µg/cm^2/h,0.32 ± 0.10 h,41.70 ± 5.67 µg/cm^2/h,-0.09 ± 0.46 h,63.75 ± 1.57 µg/cm^2/h,0.24 ± 0.001 h,–,approximately 40%,–,–,–,–,–,12.47,5.83

# Source: PMC10747729, “Permeation Protection by Waterproofing Mucosal Membranes” (Pharmaceutics, 2023)
